Data on 2 compounds can be found in article PMC9517990 (Communications Biology, 2022).

The subject of assay [1] is A/South Korea/90207/2020 NA-H275Y virus. It is filed as cell-based, influenza A(H1N1)pdm09 virus.
In assay [2] the test system is A/South Korea/90207/2020 NA-H275Y + PA-I38T virus. It is filed as cell-based, influenza A(H1N1)pdm09 virus.
Assay [3] deals with A/South Korea/90207/2020 PA-I38T virus. It is filed as cell-based, influenza A(H1N1)pdm09 virus.
Assay [4] has as its target neuraminidase of A/South Korea/90207/2020 NA-H275Y + PA-I38T virus (Influenza A virus (A(H1N1)pdm09), UniProt A0A0X9QTS2, H275Y). The format is biochemical.
Assay [5] has as its target neuraminidase of A/South Korea/90207/2020 NA-H275Y virus (Influenza A virus (A(H1N1)pdm09), UniProt A0A0X9QTS2, H275Y). It is filed as biochemical.
The target in assay [6] is neuraminidase of A/South Korea/90207/2020 PA-I38T virus (Influenza A virus (A(H1N1)pdm09), UniProt A0A0X9QTS2). The format is biochemical.
Setting [7] is: read-out: EC50 nM ± SD (column headed IC50; footnote: EC50).

Take `O=C1c2c(O)c(=O)ccn2N([C@@H]2c3ccccc3SCc3c2ccc(F)c3F)[C@@H]2COCCN12` [Baloxavir, Baloxavir acid]: the “EC50 fold change compared to WT” value is 1 fold in assay [1], 190 fold in assay [2] and 373 fold in assay [3]. Also, the EC50 in assay [1] (setting [7]) amounted to 1.2 ± 0.3 nM; in assay [2] (setting [7]) it was 194 nM; in assay [3] (setting [7]), 380 nM.
In the case of `CCC(CC)[C@H](NC(C)=O)[C@@H]1[C@H](O)[C@@H](C(=O)O)C[C@H]1N=C(N)N` [Peramivir, peramivir], the figures for the IC50 in assay [4], in assay [5] and in assay [6] were 16.2 nM, 16.8 ± 3.1 nM and 0.26 nM, respectively. Further, in assay [6], the “IC50 fold change compared to WT” value is 2 fold.
